pEC50: −log10 of the molar value.
The molecules below were run on Recombinant human AMPK proteins (α1β1γ1, α2β1γ1, α1(1-335), α1(1-394) or α2(1-394)) (assay: Scintillation Proximity Assay (SPA) of AMPK activation). Settings: activator concentration for 50% of maximal enzyme activity; 50 nM recombinant AMPK, 2 μM ATP, 30° C., 2 hr.
Format: biochemical
Experimental: Recombinant human AMPK α1β1γ1, α2β1γ1 or AMPK α subunit truncations α1(1-335), α1(1-394) and α2(1-394) were constructed, expressed and purified as described previously (Pang, T., Zhang, Z. S., Gu, M., Qiu, B. Y., Yu, L. F., Cao, P. R., Shao, W., Su, M. B., Li, J. Y., Nan, F. J., and Li, J. (2008)). Rat liver AMPK heterotrimer enzyme was obtained from Upstate (Billerica, Mass., U.S.A.).
Scintillation Proximity Assay
Before the Scintillation Proximity Assay (SPA) assay, 200 nM recombinant AMPK proteins (α1β1γ1, α2β1γ1, α1(1-335), α1(1-394) or α2(1-394)) were fully phosphorylated as described previously (Pang et al., 2008). SPA reactions were performed in 96-well plates at a final volume of 501 containing 20 mM Tris-HCl pH 7.5, 5 mM MgCl2, 1 mM DTT, 2 μM biotin-SAMS, 2 μM ATP, 0.2 μCi/well [γ-^33P]ATP, and various amount of activator. Reactions were initiated by the addition of 50 nM recombinant AMPK proteins to the reaction solutions and incubated at 30° C. for 2 hr. After that, reactions were terminated by the addition of 401 stop solution containing 80 μg streptavidin-coated SPA beads per well, 50 mM EDTA, 0.1% Triton X-100 in PBS, pH 7.5 and incubated for 1 hr. Finally, a 160 ul suspension solution containing 2.4 M CsCl, 50 mM EDTA, and 0.1% Triton X-100 in PBS (pH 7.5) was added to the reaction solution to suspend SPA beads completely. SPA signals were determined with a Wallac MicroBeta plate counter (PerkinElmer) 30 min later for calculation of the amount of product formed. The amount of products formed in 2 hr was plotted against activator concentrations to determine the effective concentration of the activator (EC50) required for 50% of maximal enzyme activity.
Compounds as described above have EC50 values between 0.5 uM and 50 uM, preferred compounds have EC50 values between 0.5 uM and 10 uM, particularly preferred compounds have EC50 values between 0.5 uM and 1 uM.

pEC50 | SMILES
5.62 | COc1ccccc1/C(=C1\C(=O)N(Cc2cccc(C(=O)O)c2)c2ccccc21)c1ccc(Cl)cc1 [Example 47, 3-{3-[1-(4-Chloro-phenyl)-1-(2-methoxy-phenyl)-meth-(Z)-ylidene]-2-oxo-2,3-dihydro-indol-1-ylmethyl}-benzoic acid]
5.66 | O=C(O)c1cccc(CN2C(=O)/C(=C(\c3ccc(Cl)cc3)c3ccc(C(F)(F)F)cc3)c3ccccc32)c1 [Example 69, 3-{3-[1-(4-Chloro-phenyl)-1-(4-trifluoromethyl-phenyl)-meth-(Z)-ylidene]-2-oxo-2,3-dihydro-indol-1-ylmethyl}-benzoic acid]
5.92 | O=C(O)c1cccc(CN2C(=O)/C(=C(\c3ccccc3)c3ccc(Cl)cc3)c3ccccc32)c1 [Example 44, 3-{3-[1-(4-Chloro-phenyl)-1-phenyl-meth-(E)-ylidene]-2-oxo-2,3-dihydro-indol-1-ylmethyl}-benzoic acid]
5.73 | COC(=O)c1cccc(CN2C(=O)/C(=C(\c3ccccc3)c3ccc(F)c(Cl)c3)c3ccccc32)c1 [Example 13, 3-{3-[1-(3-Chloro-4-fluoro-phenyl)-1-phenyl-meth-(E)-ylidene]-2-oxo-2,3-dihydro-indol-1-ylmethyl}-benzoic acid methyl ester]
5.90 | NS(=O)(=O)c1ccc(/C(=C2/C(=O)N(Cc3cccc(C(=O)O)c3)c3ccccc32)c2ccccc2)cc1 [Example 67, 3-{2-Oxo-3-[1-phenyl-1-(4-sulfamoyl-phenyl)-meth-(E)-ylidene]-2,3-dihydro-indol-1-ylmethyl}-benzoic acid]
5.75 | COC(=O)c1cccc(CN2C(=O)/C(=C(\c3ccccc3)c3cccc(Cl)c3Cl)c3ccccc32)c1 [Example 20, 3-{3-[1-(2,3-Dichloro-phenyl)-1-phenyl-meth-(E)-ylidene]-2-oxo-2,3-dihydro-indol-1-ylmethyl}-benzoic acid methyl ester]
5.74 | COC(=O)c1cccc(CN2C(=O)/C(=C(/c3ccccc3)c3ccc(Cl)cc3)c3ccccc32)c1 [Example 34, 3-{3-[1-(4-Chloro-phenyl)-1-phenyl-meth-(Z)-ylidene]-2-oxo-2,3-dihydro-indol-1-ylmethyl}-benzoic acid methyl ester]
5.91 | O=C(O)c1cccc(CN2C(=O)/C(=C(\c3ccccc3)c3ccc(Cl)cc3)c3c(F)cccc32)c1 [Example 60, 3-{3-[1-(4-Chloro-phenyl)-1-phenyl-meth-(E)-ylidene]-4-fluoro-2-oxo-2,3-dihydro-indol-1-ylmethyl}-benzoic acid]
5.53 | O=C(O)c1cccc(CN2C(=O)/C(=C(\c3ccccc3)c3cccc(Cl)c3Cl)c3ccccc32)c1 [Example 55, 3-{3-[1-(2,3-Dichloro-phenyl)-1-phenyl-meth-(E)-ylidene]-2-oxo-2,3-dihydro-indol-1-ylmethyl}-benzoic acid]
5.85 | COc1cc(/C(=C2/C(=O)N(Cc3cccc(C(=O)O)c3)c3ccccc32)c2ccccc2)cc(OC)c1OC [Example 51, 3-{2-Oxo-3-[1-phenyl-1-(3,4,5-trimethoxy-phenyl)-meth-(E)-ylidene]-2,3-dihydro-indol-1-ylmethyl}-benzoic acid]
5.74 | O=C(O)c1cccc(CN2C(=O)/C(=C(\c3ccccc3)c3ccccc3Cl)c3ccccc32)c1 [Example 75, 3-{3-[1-(2-Chloro-phenyl)-1-phenyl-meth-(E)-ylidene]-2-oxo-2,3-dihydro-indol-1-ylmethyl}-benzoic acid]
5.66 | O=C(O)c1ccc(CN2C(=O)/C(=C(\c3ccccc3)c3ccc(Cl)cc3)c3ccccc32)cc1 [Example 57, 4-{3-[1-(4-Chloro-phenyl)-1-phenyl-meth-(E)-ylidene]-2-oxo-2,3-dihydro-indol-1-ylmethyl}-benzoic acid]
5.19 | COC(=O)c1cccc(CN2C(=O)/C(=C(\c3ccccc3)c3ccc(OC)cc3)c3ccccc32)c1 [Example 8, 3-{3-[1-(4-Methoxy-phenyl)-1-phenyl-meth-(E)-ylidene]-2-oxo-2,3-dihydro-indol-1-ylmethyl}-benzoic acid methyl ester]
5.18 | O=C(O)c1cccc(CN2C(=O)/C(=C(\c3ccccc3)c3cc(C(F)(F)F)ccc3Cl)c3ccccc32)c1 [Example 64, 3-{3-[1-(2-Chloro-5-trifluoromethyl-phenyl)-1-phenyl-meth-(E)-ylidene]-2-oxo-2,3-dihydro-indol-1-ylmethyl}-benzoic acid]
5.40 | CC(C)c1ccc(/C(=C2/C(=O)N(Cc3cccc(C(=O)O)c3)c3ccccc32)c2ccccc2)cc1 [Example 71, 3-{3-[1-(4-Isopropyl-phenyl)-1-phenyl-meth-(E)-ylidene]-2-oxo-2,3-dihydro-indol-1-ylmethyl}-benzoic acid]
5.23 | O=C(O)c1cccc(CN2C(=O)/C(=C(\c3ccccc3)c3ccc(F)c(Cl)c3)c3ccccc32)c1 [Example 50, 3-{3-[1-(3-Chloro-4-fluoro-phenyl)-1-phenyl-meth-(E)-ylidene]-2-oxo-2,3-dihydro-indol-1-ylmethyl}-benzoic acid]
5.56 | COC(=O)c1cccc(CN2C(=O)/C(=C(\c3ccccc3)c3cccc(Br)c3)c3ccccc32)c1 [Example 27, 3-{3-[1-(3-Bromo-phenyl)-1-phenyl-meth-(E)-ylidene]-2-oxo-2,3-dihydro-indol-1-ylmethyl}-benzoic acid methyl ester]
5.49 | O=C(O)c1cccc(CN2C(=O)/C(=C(\c3ccccc3)c3cccnc3)c3ccccc32)c1 [Example 63, 3-{2-Oxo-3-[1-phenyl-1-pyridin-3-yl-meth-(E)-ylidene]-2,3-dihydro-indol-1-ylmethyl}-benzoic acid]
5.32 | CC(C)CC/C(=C1/C(=O)N(Cc2cccc(C(=O)O)c2)c2ccccc21)c1ccccc1 [Example 81, 3-[3-(4-Methyl-1-phenyl-pent-(Z)-ylidene)-2-oxo-2,3-dihydro-indol-1-ylmethyl]-benzoic acid]
5.37 | O=C(O)c1ccccc1CN1C(=O)/C(=C(\c2ccccc2)c2ccc(Cl)cc2)c2ccccc21 [Example 56, 2-{3-[1-(4-Chloro-phenyl)-1-phenyl-meth-(E)-ylidene]-2-oxo-2,3-dihydro-indol-1-ylmethyl}-benzoic acid]
5.38 | COC(=O)c1cccc(CN2C(=O)/C(=C(\c3ccccc3)c3ccc(Cl)cc3)c3cc(OC)ccc32)c1 [Example 22, 3-{3-[1-(4-Chloro-phenyl)-1-phenyl-meth-(E)-ylidene]-5-methoxy-2-oxo-2,3-dihydro-indol-1-ylmethyl}-benzoic acid methyl ester]
5.63 | COC(=O)c1cccc(CN2C(=O)/C(=C(\c3ccccc3)c3ccc(Cl)cc3)c3cc(F)cc(Cl)c32)c1 [Example 29, 3-{7-Chloro-3-[1-(4-chloro-phenyl)-1-phenyl-meth-(E)-ylidene]-5-fluoro-2-oxo-2,3-dihydro-indol-1-ylmethyl}-benzoic acid methyl ester]
5.31 | O=C(O)c1cccc(CN2C(=O)/C(=C(\c3ccccc3)c3ccc(Cl)cc3)c3ccc(F)cc32)c1 [Example 61, 3-{3-[1-(4-Chloro-phenyl)-1-phenyl-meth-(E)-ylidene]-6-fluoro-2-oxo-2,3-dihydro-indol-1-ylmethyl}-benzoic acid]
5.49 | CC(=O)c1ccc(/C(=C2/C(=O)N(Cc3cccc(C(=O)O)c3)c3ccccc32)C(C)C)cc1 [Example 108, 3-{3-[1-(4-Acetyl-phenyl)-2-methyl-prop-(E)-ylidene]-2-oxo-2,3-dihydro-indol-1-ylmethyl}-benzoic acid]
5.78 | COC(=O)c1cccc(CN2C(=O)/C(=C(\c3ccccc3)c3cccc(C(F)(F)F)c3)c3ccccc32)c1 [Example 30, 3-{2-Oxo-3-[1-phenyl-1-(3-trifluoromethyl-phenyl)-meth-(E)-ylidene]-2,3-dihydro-indol-1-ylmethyl}-benzoic acid methyl ester]
5.64 | COC(=O)c1cccc(CN2C(=O)/C(=C(\c3ccccc3)c3ccc(Cl)cc3)c3ccccc32)c1 [Example 5, 3-((3-((4-Chlorophenyl)(phenyl)meth-(E)-ylene)-2-oxoindolin-1-yl)methyl)benzoic acid methyl ester]
5.36 | COC(=O)c1cccc(CN2C(=O)/C(=C(\c3ccccc3)c3cc(OC)c(OC)c(OC)c3)c3ccccc32)c1 [Example 14, 3-{2-Oxo-3-[1-phenyl-1-(3,4,5-trimethoxy-phenyl)-meth-(E)-ylidene]-2,3-dihydro-indol-1-ylmethyl}-benzoic acid methyl ester]

From US8778973B2, “Alkene oxindole derivatives” (Hoffmann-La Roche Inc., priority 2009, dated 2014)
